Experimental data reported in patent publication US10471029B2, “Methods for treating neurological disorders” (Alzheon, Inc., priority 2014, dated 2019).
Read-outs that look alike come from different tables or passages of the source.

Tests used:
[1] = system: Alzheimer's Disease patients; assay: ADAS-Cog score following treatment of Alzheimer's Disease patients with tramiprosate, retrospective subgroup analysis in 599 ApoE4+ subjects (FIGS. 1-2); type: in vivo, human; conditions: through 18 months, 150 mg BID, n=183, on top of acetylcholinesterase inhibitors and/or memantine
Description: FIG. 1 illustrates reduced ADAS-Cog score following treatment of Alzheimer's Disease patients with tramiprosate. At 26 weeks−1.25 (82%) P=0.0219 for 100 mg BID, −1.03 (57%), P=0.118 for 150 mg BID. At 52 weeks−2.03 (35%) P=0.002 for 100 mg BID, −1.85 (32%), P=0.006 for 150 mg BID. At 65 weeks−1.52 (22%) P=0.024 for 100 mg BID, −1.90 (27%) P=0.005 for 150 mg BID. At 78 weeks−1.90 (27%) P=0.005 for 100 mg BID, −1.86 (21%) P=0.028 for 150 mg BID. (n=599). Data derived from Caltagirone et al., “The potential protective effect of tramiprosate (homotaurine) against Alzheimer's disease: a review,” Aging Clin Exp Res. 2012 December; 24(6):580-7.
In certain embodiments, the efficacy of a compound may be determined through the ADAS-cog (Alzheimer's Disease Assessment Scale-cognitive subscale). ADAS was designed to measure the severity of the most important symptoms of Alzheimer's disease (AD). Its subscale ADAS-cog is the most popular cognitive testing instrument used in clinical trials of nootropics. It consists of 11 tasks measuring the disturbances of memory, language, praxis, attention and other cognitive abilities which are often referred to as the core symptoms of AD. The ADAS-Cog helps evaluate cognition and differentiates between normal cognitive functioning and impaired cognitive functioning. […]

[2] = system: Alzheimer's Disease patients; assay: ADAS-Cog by ApoE4 subgroup in merged dataset; type: in vivo, human; conditions: for Change in ADAS-Cog Slope vs placebo / Change in ADAS-Cog Week 78 / ADAS-Cog Slope vs placebo / ADAS-Cog Week 78: merged dataset; for Change in ADAS-Cog Slope vs placebo / Change in ADAS-Cog Week 78: <80 years old
Description: (§1) In certain embodiments, the efficacy of a compound may be determined through the ADAS-cog (Alzheimer's Disease Assessment Scale-cognitive subscale). ADAS was designed to measure the severity of the most important symptoms of Alzheimer's disease (AD). Its subscale ADAS-cog is the most popular cognitive testing instrument used in clinical trials of nootropics. It consists of 11 tasks measuring the disturbances of memory, language, praxis, attention and other cognitive abilities which are often referred to as the core symptoms of AD. The ADAS-Cog helps evaluate cognition and differentiates between normal cognitive functioning and impaired cognitive functioning. It is especially useful for determining the extent of cognitive decline and can help evaluate which stage of Alzheimer's disease a person is in, based on their answers and score. The ADAS-Cog can be used in clinical trials in order to determine incremental improvements or declines in cognitive functioning.
(§2) Patients were administered 3APS at 150 mg BID and 100 mg BID or were provided a placebo. ADAS-Cog results were measured. The data establish that the decline in score is delayed by 3APS. At 13 weeks a small improvement in ADAS-cog was observed. Over time, the difference increased.

[3] = system: Alzheimer's Disease patients; assay: Change in ADAS-Cog by ApoE status in North American Trial; type: in vivo, human; conditions: for Change in ADAS-Cog Slope vs placebo / Change in ADAS-Cog Week 78: North American Trial
Description: as §1, §2
Patients were administered 3APS and ADAS-Cog results were obtained at various timepoints. Patients were then genotyped to detect the presence of ApoE4 alleles. FIG. 8 illustrates the advantageous effects of tramiprosate, the active agent of Val-APS, in certain sub-populations segregated based on Apo E4 status. […] Data is presented at 13 weeks, 26 weeks, 39 weeks, 52 weeks, 65 weeks, and 78 weeks. […] ApoE4 prevalence correlates with improved cognition scores.

[4] = system: Alzheimer's Disease patients; assay: CDR-SB (function) in ApoE4+ subjects (FIG. 3); type: in vivo, human; conditions: through 18 months, 150 mg BID, n=183, on top of acetylcholinesterase inhibitors and/or memantine
[5] = system: Alzheimer's Disease patients; conditions: n=599, cited from earlier work
[6] = Plasma and brain exposure of tramiprosate after oral Val-APS or tramiprosate in animals (FIG. 4); type: in vivo; conditions: Val-APS prodrug versus tramiprosate
Description: L-Valyl-3-aminopropanesulfonate (Val-APS) is an orally available small molecule prodrug of tramiprosate with improved pharmaceutical properties. Tramiprosate was advanced to a ˜2,000 patient Phase 3 program which completed in 2007. […] Thus the present disclosure provides for administration of certain compounds including val-APS to ApoE4-positive patients for the treatment of Alzheimer's Disease.
The AUC ratio of brain tramiprosate exposure due to Val-APS compared to tramiprosate is ˜2.1.

[7] = Tolerability of Val-APS prodrug over tramiprosate; type: in vivo
[8] = human, in vivo

NCCCS(=O)(=O)O [Compound 3APS, 3-amino-1-propanesulfonic acid]
cognition (ADAS-cog) [1]: clinically meaningful improvement
decline in ADAS-Cog score ([2]; 150 mg BID and 100 mg BID versus placebo): delayed
Change in ADAS-Cog Slope vs placebo ([2]; ApoE4+, 100 mg BID): −3.92
Change in ADAS-Cog Week 78 ([2]; ApoE4+, 100 mg BID): −1.13
Change in ADAS-Cog Slope vs placebo ([2]; ApoE4+, 150 mg BID): −8.65
Change in ADAS-Cog Week 78 ([2]; ApoE4+, 150 mg BID): −2.17
Change in ADAS-Cog Slope vs placebo ([2]; ApoE4−, 100 mg BID): −4.40
Change in ADAS-Cog Week 78 ([2]; ApoE4−, 100 mg BID): −2.54
Change in ADAS-Cog Slope vs placebo ([2]; ApoE4−, 150 mg BID): −2.81
Change in ADAS-Cog Week 78 ([2]; ApoE4−, 150 mg BID): −0.93
Change in ADAS-Cog Slope vs placebo ([2]; Total, 100 mg BID): −3.94
Change in ADAS-Cog Week 78 ([2]; Total, 100 mg BID): −1.55
Change in ADAS-Cog Slope vs placebo ([2]; Total, 150 mg BID): −6.37
Change in ADAS-Cog Week 78 ([2]; Total, 150 mg BID): −1.66
ADAS-Cog Slope vs placebo ([2]; ApoE4+, 100 mg BID): −3.61
ADAS-Cog Week 78 ([2]; ApoE4+, 100 mg BID): −1.09
ADAS-Cog Slope vs placebo ([2]; ApoE4+, 150 mg BID): −7.09
ADAS-Cog Week 78 ([2]; ApoE4+, 150 mg BID): −1.73
ADAS-Cog Slope vs placebo ([2]; ApoE4−, 100 mg BID): −2.45
ADAS-Cog Week 78 ([2]; ApoE4−, 100 mg BID): −1.92
ADAS-Cog Slope vs placebo ([2]; ApoE4−, 150 mg BID): 0.35
ADAS-Cog Week 78 ([2]; ApoE4−, 150 mg BID): −0.66
ADAS-Cog Slope vs placebo ([2]; Total, 100 mg BID): −3.18
ADAS-Cog Week 78 ([2]; Total, 100 mg BID): −1.34
ADAS-Cog Slope vs placebo ([2]; Total, 150 mg BID): −4.19
ADAS-Cog Week 78 ([2]; Total, 150 mg BID): −1.27
Change in ADAS-Cog Slope vs placebo ([3]; ApoE4+ and ++, 100 mg BID): −1.43
Change in ADAS-Cog Week 78 ([3]; ApoE4+ and ++, 100 mg BID): −0.81
Change in ADAS-Cog Slope vs placebo ([3]; ApoE4+ and ++, 150 mg BID): −7.49
Change in ADAS-Cog Week 78 ([3]; ApoE4+ and ++, 150 mg BID): −1.67
Change in ADAS-Cog Slope vs placebo ([3]; ApoE4++, 100 mg BID): −4.33
Change in ADAS-Cog Week 78 ([3]; ApoE4++, 100 mg BID): −1.49
Change in ADAS-Cog Slope vs placebo ([3]; ApoE4++, 150 mg BID): −19.79
Change in ADAS-Cog Week 78 ([3]; ApoE4++, 150 mg BID): −4.63
Change in ADAS-Cog Slope vs placebo ([3]; ApoE4−, 100 mg BID): −2.04
Change in ADAS-Cog Week 78 ([3]; ApoE4−, 100 mg BID): −1.23
Change in ADAS-Cog Slope vs placebo ([3]; ApoE4−, 150 mg BID): 3.57
Change in ADAS-Cog Week 78 ([3]; ApoE4−, 150 mg BID): 0.59
Change in ADAS-Cog Slope vs placebo ([3]; Total, 100 mg BID): −1.75
Change in ADAS-Cog Week 78 ([3]; Total, 100 mg BID): −0.93
Change in ADAS-Cog Slope vs placebo ([3]; Total, 150 mg BID): −3.32
Change in ADAS-Cog Week 78 ([3]; Total, 150 mg BID): −0.83
improvement versus placebo on cognition ([3]; homozygous ApoE4 subjects, 150 mg BID, n=34): 4 point
improvement versus placebo on the ADAS-cog ([3]; homozygous ApoE4 subjects, 150 mg BID, n=34, after 18 months of treatment): 4.62 points
function (CDR-SB) [4]: clinically meaningful improvement
ADAS-Cog score, percent in brackets ([5]; 26 weeks, 100 mg BID): 82%
ADAS-Cog score ([5]; 26 weeks, 150 mg BID): −1.03
ADAS-Cog score, percent in brackets ([5]; 26 weeks, 150 mg BID): 57%
ADAS-Cog score, percent in brackets ([5]; 52 weeks, 100 mg BID): 35%
ADAS-Cog score ([5]; 52 weeks, 150 mg BID): −1.85
ADAS-Cog score, percent in brackets ([5]; 52 weeks, 150 mg BID): 32%
ADAS-Cog score, percent in brackets ([5]; 65 weeks, 100 mg BID): 22%
ADAS-Cog score ([5]; 65 weeks, 150 mg BID): −1.90
ADAS-Cog score, percent in brackets ([5]; 65 weeks, 150 mg BID): 27%
ADAS-Cog score ([5]; 78 weeks, 100 mg BID): −1.90
ADAS-Cog score, percent in brackets ([5]; 78 weeks, 100 mg BID): 27%
ADAS-Cog score ([5]; 78 weeks, 150 mg BID): −1.86
ADAS-Cog score, percent in brackets ([5]; 78 weeks, 150 mg BID): 21%

CC(C)[C@H](N)C(=O)NCCCS(=O)(=O)O [Val-APS, L-Valyl-3-aminopropanesulfonate]
accumulation in the brain [6]: improved
GI tolerability [7]: improved
nausea & vomiting [7]: reduced
formation of metabolite NRM5074 [8]: reduced
inter-subject PK variability [8]: decreased
t½ [8]: 14.9 ±3.9
